Laboratory results: ChEMBL document CHEMBL5303573, “Mapping human microbiome drug metabolism by gut bacteria and their genes” (Nature, 2019)

What was measured:
[1] = The drug is tested on Collinsella aerofaciens strain: ATCC25986 for biotransformation. The drug concentrations were measured before and after a 12-h incubation by liquid-chromatography-coupled mass spectrometry (LC–MS); settings: 2 µM
[2] = The drug is tested on Bacteroides fragilis strain: HMW615 for biotransformation. The drug concentrations were measured before and after a 12-h incubation by liquid-chromatography-coupled mass spectrometry (LC–MS); settings: 2 µM
[3] = The drug is tested on Odoribacter splanchnicus strain: fecal isolate for biotransformation. The drug concentrations were measured before and after a 12-h incubation by liquid-chromatography-coupled mass spectrometry (LC–MS); settings: 2 µM
[4] = The drug is tested on Parabacteroides merdae strain: ATCC43184 for biotransformation. The drug concentrations were measured before and after a 12-h incubation by liquid-chromatography-coupled mass spectrometry (LC–MS); settings: 2 µM
[5] = The drug is tested on Anaerococcus hydrogenalis strain: DSM7454 for biotransformation. The drug concentrations were measured before and after a 12-h incubation by liquid-chromatography-coupled mass spectrometry (LC–MS); settings: 2 µM
[6] = The drug is tested on Clostridium sp. strain: fecal isolate for biotransformation. The drug concentrations were measured before and after a 12-h incubation by liquid-chromatography-coupled mass spectrometry (LC–MS); settings: 2 µM
[7] = The drug is tested on Clostridium scindens strain: ATCC35704 for biotransformation. The drug concentrations were measured before and after a 12-h incubation by liquid-chromatography-coupled mass spectrometry (LC–MS); settings: 2 µM
[8] = The drug is tested on Clostridium sporogenes strain: ATCC15579 for biotransformation. The drug concentrations were measured before and after a 12-h incubation by liquid-chromatography-coupled mass spectrometry (LC–MS); settings: 2 µM
[9] = The drug is tested on Coprococcus comes strain: ATCC27758 for biotransformation. The drug concentrations were measured before and after a 12-h incubation by liquid-chromatography-coupled mass spectrometry (LC–MS); assay type: ADME; design: dose 2 uM, timepoint 0 vs 12 hours; settings: 2 µM
[10] = The drug is tested on Enterococcus faecalis strain: V583 for biotransformation. The drug concentrations were measured before and after a 12-h incubation by liquid-chromatography-coupled mass spectrometry (LC–MS); settings: 2 µM
[11] = The drug is tested on Eubacterium hallii strain: DSM3353 for biotransformation. The drug concentrations were measured before and after a 12-h incubation by liquid-chromatography-coupled mass spectrometry (LC–MS); settings: anaerobutyricum hallii, 2 µM
[12] = The drug is tested on Ruminococcus gnavus strain: ATCC29149 for biotransformation. The drug concentrations were measured before and after a 12-h incubation by liquid-chromatography-coupled mass spectrometry (LC–MS); settings: mediterraneibacter gnavus, 2 µM
[13] = The drug is tested on Enterobacter cancerogenus strain: ATCC35316 for biotransformation. The drug concentrations were measured before and after a 12-h incubation by liquid-chromatography-coupled mass spectrometry (LC–MS); settings: 2 µM
[14] = The drug is tested on Providencia stuartii strain: ATCC25827 for biotransformation. The drug concentrations were measured before and after a 12-h incubation by liquid-chromatography-coupled mass spectrometry (LC–MS); settings: 2 µM
[15] = bacteroides fragilis, 12 h, 2 µM
Description: The drug is tested on Bacteroides fragilis strain: NCTC 9343 for biotransformation. The drug concentrations were measured before and after a 12-h incubation by liquid-chromatography-coupled mass spectrometry (LC–MS)

[16] = parabacteroides distasonis, 12 h, 2 µM
Description: The drug is tested on Parabacteroides distasonis strain: ATCC8503 for biotransformation. The drug concentrations were measured before and after a 12-h incubation by liquid-chromatography-coupled mass spectrometry (LC–MS)

[17] = segatella copri, 12 h, 2 µM
Description: The drug is tested on Prevotella copri strain: DSM18205 for biotransformation. The drug concentrations were measured before and after a 12-h incubation by liquid-chromatography-coupled mass spectrometry (LC–MS)

[18] = enterocloster bolteae, 12 h, 2 µM
Description: The drug is tested on Clostridium bolteae strain: ATCCBAA-613 for biotransformation. The drug concentrations were measured before and after a 12-h incubation by liquid-chromatography-coupled mass spectrometry (LC–MS)

[19] = limosilactobacillus reuteri cf48-3a, 12 h, 2 µM
Description: The drug is tested on Lactobacillus reuteri CF48-3A strain: BEI HM-102 for biotransformation. The drug concentrations were measured before and after a 12-h incubation by liquid-chromatography-coupled mass spectrometry (LC–MS)

[20] = The drug is tested on Clostridium asparagiforme strain: DSM15981 for biotransformation. The drug concentrations were measured before and after a 12-h incubation by liquid-chromatography-coupled mass spectrometry (LC–MS); assay type: ADME; design: dose 2 uM, timepoint 0 vs 12 hours; settings: enterocloster asparagiformis, 2 µM

SMILES | Bacterial Biotransformation [1] | Bacterial Biotransformation [2] | Bacterial Biotransformation [3] | Bacterial Biotransformation [4] | Bacterial Biotransformation [5] | Bacterial Biotransformation [6] | Bacterial Biotransformation [7] | Bacterial Biotransformation [8] | Bacterial Biotransformation [9] | Bacterial Biotransformation [10] | Bacterial Biotransformation [11] | Bacterial Biotransformation [12] | Bacterial Biotransformation [13] | Bacterial Biotransformation [14] | Bacterial Biotransformation [15] | Bacterial Biotransformation [16] | Bacterial Biotransformation [17] | Bacterial Biotransformation [18] | Bacterial Biotransformation [19] | Bacterial Biotransformation [20]
O=P(O)(O)O.c1ccc(CN(CC2=NCCN2)c2ccccc2)cc1 [ANTAZOLINE PHOSPHATE] | Compound NOT metabolized | – | – | Compound NOT metabolized | Compound NOT metabolized | Compound NOT metabolized | Compound NOT metabolized | Compound NOT metabolized | Compound NOT metabolized | Compound NOT metabolized | Compound NOT metabolized | Compound NOT metabolized | – | Compound NOT metabolized | Compound NOT metabolized | – | Compound NOT metabolized | Compound NOT metabolized | Compound NOT metabolized | Compound NOT metabolized
Nc1nc2ccc(OC(F)(F)F)cc2s1 [RILUZOLE] | Compound NOT metabolized | Compound metabolized | Compound NOT metabolized | Compound NOT metabolized | Compound NOT metabolized | Compound metabolized | Compound NOT metabolized | Compound NOT metabolized | – | Compound NOT metabolized | Compound NOT metabolized | Compound NOT metabolized | Compound NOT metabolized | Compound NOT metabolized | Compound NOT metabolized | Compound metabolized | Compound NOT metabolized | Compound NOT metabolized | Compound NOT metabolized | –
OC(CCN1CCCCC1)(c1ccccc1)C1CCCCC1 (configuration not stated) [TRIHEXYPHENIDYL] | Compound NOT metabolized | – | – | – | Compound NOT metabolized | Compound metabolized | Compound NOT metabolized | – | Compound NOT metabolized | Compound NOT metabolized | Compound NOT metabolized | Compound NOT metabolized | – | Compound NOT metabolized | Compound NOT metabolized | Compound NOT metabolized | – | – | Compound NOT metabolized | Compound NOT metabolized
CC(N)C12CC3CC(CC(C3)C1)C2 (configuration not stated) [RIMANTADINE] | Compound NOT metabolized | Compound NOT metabolized | Compound NOT metabolized | Compound NOT metabolized | Compound NOT metabolized | Compound NOT metabolized | Compound NOT metabolized | Compound NOT metabolized | Compound NOT metabolized | Compound NOT metabolized | Compound NOT metabolized | Compound NOT metabolized | Compound NOT metabolized | Compound NOT metabolized | Compound NOT metabolized | Compound NOT metabolized | Compound NOT metabolized | Compound NOT metabolized | Compound NOT metabolized | –
C[C@@H](c1ncncc1F)[C@](O)(Cn1cncn1)c1ccc(F)cc1F [VORICONAZOLE] | Compound NOT metabolized | Compound metabolized | Compound metabolized | Compound NOT metabolized | Compound NOT metabolized | Compound NOT metabolized | Compound NOT metabolized | Compound NOT metabolized | Compound NOT metabolized | Compound NOT metabolized | Compound NOT metabolized | Compound NOT metabolized | Compound NOT metabolized | Compound NOT metabolized | Compound NOT metabolized | Compound metabolized | Compound NOT metabolized | Compound NOT metabolized | Compound NOT metabolized | –

Second part, the compound after the results:

Bacterial Biotransformation [1] | Bacterial Biotransformation [2] | Bacterial Biotransformation [3] | Bacterial Biotransformation [4] | Bacterial Biotransformation [5] | Bacterial Biotransformation [6] | Bacterial Biotransformation [7] | Bacterial Biotransformation [8] | Bacterial Biotransformation [9] | Bacterial Biotransformation [10] | Bacterial Biotransformation [11] | Bacterial Biotransformation [12] | Bacterial Biotransformation [13] | Bacterial Biotransformation [14] | Bacterial Biotransformation [15] | Bacterial Biotransformation [16] | Bacterial Biotransformation [17] | Bacterial Biotransformation [18] | Bacterial Biotransformation [19] | Bacterial Biotransformation [20] | SMILES
Compound NOT metabolized | Compound metabolized | Compound metabolized | Compound metabolized | Compound NOT metabolized | Compound NOT metabolized | Compound NOT metabolized | Compound metabolized | Compound NOT metabolized | Compound metabolized | Compound NOT metabolized | Compound NOT metabolized | Compound NOT metabolized | Compound metabolized | Compound metabolized | Compound metabolized | Compound metabolized | Compound NOT metabolized | Compound NOT metabolized | – | N#Cc1ccc2[nH]cc(CCCCN3CCN(c4ccc5oc(C(N)=O)cc5c4)CC3)c2c1 [VILAZODONE]
Compound NOT metabolized | Compound NOT metabolized | Compound NOT metabolized | Compound NOT metabolized | Compound NOT metabolized | Compound NOT metabolized | Compound NOT metabolized | Compound NOT metabolized | Compound NOT metabolized | – | Compound NOT metabolized | Compound NOT metabolized | Compound NOT metabolized | – | Compound NOT metabolized | Compound NOT metabolized | Compound NOT metabolized | Compound NOT metabolized | Compound NOT metabolized | – | CC[C@@]1(O)C(=O)OCc2c1cc1n(c2=O)Cc2cc3c(CN(C)C)c(O)ccc3nc2-1 [TOPOTECAN]
Compound NOT metabolized | – | Compound metabolized | Compound NOT metabolized | Compound NOT metabolized | Compound metabolized | Compound NOT metabolized | Compound NOT metabolized | – | Compound NOT metabolized | Compound NOT metabolized | Compound NOT metabolized | – | Compound NOT metabolized | Compound metabolized | Compound NOT metabolized | Compound NOT metabolized | Compound NOT metabolized | Compound NOT metabolized | Compound NOT metabolized | CC(C)c1nc(CN(C)C(=O)N[C@H](C(=O)N[C@@H](Cc2ccccc2)C[C@H](O)[C@H](Cc2ccccc2)NC(=O)OCc2cncs2)C(C)C)cs1 [RITONAVIR]
Compound NOT metabolized | Compound NOT metabolized | Compound NOT metabolized | Compound NOT metabolized | Compound NOT metabolized | Compound NOT metabolized | Compound NOT metabolized | Compound NOT metabolized | Compound NOT metabolized | Compound NOT metabolized | Compound NOT metabolized | Compound NOT metabolized | Compound NOT metabolized | Compound NOT metabolized | Compound NOT metabolized | Compound NOT metabolized | Compound NOT metabolized | Compound NOT metabolized | Compound NOT metabolized | – | CC1=C(CC(=O)O)c2cc(F)ccc2/C1=C\c1ccc([S+](C)[O-])cc1 (configuration not stated)
